Source: paper PMC8053192, “Engineering of a borneol dehydrogenase from P. putida for the enzymatic resolution of camphor” (Applied Microbiology and Biotechnology, 2021)

Tested on: T1, glucose dehydrogenase (GDH) from Pseudomonas sp.
T1 construct: commercial enzyme, Sigma-Aldrich (UK)
Test: steady-state kinetics, Michaelis-Menten fit
Type: biochemical
Conditions: pH 5.0, 30 °C; NAD+ as co-substrate; read-out: apparent Km

- Km: 3.6 ± 0.35 mM
SMILES: OC[C@H]1OC(O)[C@H](O)[C@@H](O)[C@@H]1O (stereo partly shown) [glucose]
